# Measurements taken from paper PMC8654833 (Scientific Reports, 2021).
# Key:
# Ca^2+ channel, ds = test: Radioligand binding competition dose-response (Euroscreen), Ca2+ channel diltiazem site
# Protocol: (§1) This study included binding assays (87 GPCR targets), measured as % of binding inhibition of a reference radioligand, as well as uptake and enzyme assays (19 targets), the latter measured as % inhibition of control enzyme activity. […] It was performed by radioligand binding competition by Euroscreen (Euroscreen FAST, Belgium). The following nanomolar concentrations were tested in duplicate: 0.001, 0.01, 0.1, 1, 10, 100, 1000, 10,000. Dose–response curves were fitted with the least squares method. IC50 results are shown as pIC50, corresponding to the negative log10 of IC50 in molar.
# DAT = target: T1, DAT (Homo sapiens, UniProt Q01959); test: Radioligand binding competition dose-response (Euroscreen), dopamine transporter; conditions: dose-response study, maximal concentration 10 µM, [3H]WIN 35,428; read-out: %Binding inhibition at 10 µM
# T1 construct: Euroscreen FAST (contract assay)
# Protocol: as §1
# 5-HT2A = 5-HT2A (Homo sapiens, UniProt P28223); test: biochemical; conditions: read-out: %Binding inhibition at 10 µM
# Protocol: as §1
# 5-HT5A = target: T2, 5-HT5A (Homo sapiens, UniProt P47898); test: Radioligand binding competition dose-response (Euroscreen), 5-HT5A; conditions: dose-response study, maximal concentration 10 µM, [3H]LSD
# T2 construct: Euroscreen FAST (contract assay)
# Protocol: as §1
# Ca^2+ channel, vs = test: Radioligand binding competition dose-response (Euroscreen), Ca2+ channel verapamil site
# Protocol: as §1
# T2 sequence (P47898 whole entry, species assumed): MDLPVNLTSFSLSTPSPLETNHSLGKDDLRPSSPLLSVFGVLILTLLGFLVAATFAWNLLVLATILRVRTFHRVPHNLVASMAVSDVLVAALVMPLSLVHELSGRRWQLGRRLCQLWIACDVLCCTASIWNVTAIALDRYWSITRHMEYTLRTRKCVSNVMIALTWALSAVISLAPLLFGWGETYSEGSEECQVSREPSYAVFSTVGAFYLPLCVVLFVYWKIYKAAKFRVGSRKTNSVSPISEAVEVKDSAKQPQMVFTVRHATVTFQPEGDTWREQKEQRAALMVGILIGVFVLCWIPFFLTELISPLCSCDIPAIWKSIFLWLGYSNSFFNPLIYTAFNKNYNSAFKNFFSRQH
# T1 sequence (Q01959 whole entry, species assumed): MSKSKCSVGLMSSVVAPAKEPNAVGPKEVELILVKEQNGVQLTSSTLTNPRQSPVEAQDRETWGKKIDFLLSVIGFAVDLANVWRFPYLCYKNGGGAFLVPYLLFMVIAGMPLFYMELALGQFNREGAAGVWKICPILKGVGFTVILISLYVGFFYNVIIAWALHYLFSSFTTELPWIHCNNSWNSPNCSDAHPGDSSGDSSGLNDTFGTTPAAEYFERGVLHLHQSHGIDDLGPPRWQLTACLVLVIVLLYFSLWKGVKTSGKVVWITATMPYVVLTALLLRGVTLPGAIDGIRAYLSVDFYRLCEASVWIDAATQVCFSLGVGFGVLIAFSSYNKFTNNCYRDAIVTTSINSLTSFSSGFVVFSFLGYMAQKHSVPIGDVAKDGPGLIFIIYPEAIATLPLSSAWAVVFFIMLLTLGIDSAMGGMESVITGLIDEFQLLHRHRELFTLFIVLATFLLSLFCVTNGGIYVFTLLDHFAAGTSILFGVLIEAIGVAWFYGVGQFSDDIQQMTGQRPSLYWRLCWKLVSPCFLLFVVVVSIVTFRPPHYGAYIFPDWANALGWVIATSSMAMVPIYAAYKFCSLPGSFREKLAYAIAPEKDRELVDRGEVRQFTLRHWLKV
# Sequence of 5-HT2A (P28223 whole entry, species assumed): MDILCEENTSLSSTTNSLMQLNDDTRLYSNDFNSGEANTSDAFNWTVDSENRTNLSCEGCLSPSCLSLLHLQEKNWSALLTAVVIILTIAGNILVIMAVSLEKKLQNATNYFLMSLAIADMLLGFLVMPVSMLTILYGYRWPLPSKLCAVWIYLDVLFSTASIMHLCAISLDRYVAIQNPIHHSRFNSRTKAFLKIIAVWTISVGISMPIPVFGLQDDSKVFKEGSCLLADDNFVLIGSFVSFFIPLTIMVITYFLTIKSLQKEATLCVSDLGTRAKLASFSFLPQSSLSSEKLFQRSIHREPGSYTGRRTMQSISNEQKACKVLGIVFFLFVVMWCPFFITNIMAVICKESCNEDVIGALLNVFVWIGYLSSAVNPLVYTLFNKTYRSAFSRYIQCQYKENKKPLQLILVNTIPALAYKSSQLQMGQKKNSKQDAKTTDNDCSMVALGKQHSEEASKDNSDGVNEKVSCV
smiles,measurement,setting,value
COc1ccc([C@@H]2Sc3ccccc3N(CCN(C)C)C(=O)[C@@H]2OC(C)=O)cc1 [Diltiazem],pIC50,"Ca^2+ channel, ds; [3H]diltiazem competition",4.79
same,%Binding inhibition at 10 µM,"Ca^2+ channel, ds; dose-response study, maximal concentration 10 µM, [3H]diltiazem",116.63%
Fc1ccc(C(OCCN2CCN(CCCc3ccccc3)CC2)c2ccc(F)cc2)cc1 [GBR 12909],inhibition at 10 µM,DAT,104%
O=C(c1ccc(F)cc1)C1CCN(CCn2c(=O)[nH]c3ccccc3c2=O)CC1 [Ketanserin],inhibition at 10 µM,5-HT2A,103%
CSc1ccc2c(c1)C(N1CCN(C)CC1)Cc1ccccc1S2 (stereo not shown) [Methiothepin],%Binding inhibition at 10 µM,5-HT5A,101.21%
COc1ccc(CCN(C)CCCC(C#N)(c2cc(OC)c(OC)c(OC)c2)C(C)C)cc1OC (stereo not shown) [Methoxyverapamil],pIC50,"Ca^2+ channel, vs; [3H]D888 competition",6.56
same,%Binding inhibition at 10 µM,"Ca^2+ channel, vs; dose-response study, maximal concentration 10 µM, [3H]D888",112.06%
